Test results from PubChem BioAssay AID248 (DTP/NCI, 2004).
Several values for one entry are separate records, joined by “and”; a condition that tells them apart may be missing. Identical values can stand only once. Toxic doses and inconclusive results are not listed.

Test system: L1210 leukemia ip in BDF1 mice, survival T/C
Assay: NCI In Vivo Anticancer Drug Screen. Data for tumor model L1210 Leukemia (intraperitoneal) in B6D2F1 (BDF1) mice
Conditions: endpoint: mean survival time, higher = longer survival
In short: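 Transplanted-tumor mice were given test agent; controls received vehicle only. Survival readings from the two groups were divided (treated over control).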

[1] = dose: 25.0 mg/kg/injection, schedule: Q01DX009 (ip), vehicle: saline
[2] = dose: 50.0 mg/kg/injection, schedule: Q01DX009 (ip), vehicle: saline
[3] = dose: 100.0 mg/kg/injection, schedule: Q01DX001 (ip), vehicle: saline
[4] = dose: 100.0 mg/kg/injection, schedule: Q04DX003 (ip), vehicle: saline
[5] = dose: 200.0 mg/kg/injection, schedule: Q04DX003 (ip), vehicle: saline
[6] = dose: 200.0 mg/kg/injection, schedule: Q01DX001 (ip), vehicle: saline
[7] = dose: 400.0 mg/kg/injection, schedule: Q01DX001 (ip), vehicle: saline
[8] = dose: 100.0 mg/kg/injection, schedule: Q04DX002 (ip), vehicle: saline with Tween-80
[9] = dose: 200.0 mg/kg/injection, schedule: Q04DX002 (ip), vehicle: saline with Tween-80
[10] = dose: 100.0 mg/kg/injection, schedule: Q01DX001 (ip), vehicle: carboxymethylcellulose (CMC)
[11] = dose: 200.0 mg/kg/injection, schedule: Q01DX001 (ip), vehicle: carboxymethylcellulose (CMC)
[12] = dose: 400.0 mg/kg/injection, schedule: Q01DX001 (ip), vehicle: carboxymethylcellulose (CMC)
[13] = dose: 30.0 mg/kg/injection, schedule: Q01DX Z (ip), vehicle: carboxymethylcellulose (CMC)

C[n+]1ccc(Nc2ccc(NC(=O)c3ccc(Nc4cc[n+](C)c5ccc([N+](=O)[O-])cc45)cc3[N+](=O)[O-])cc2)cc1
T/C (dose: 12.5 mg/kg/injection, schedule: Q01DX009 (ip), vehicle: saline): 112 % of control
T/C (dose: 25.0 mg/kg/injection, schedule: Q01DX001 (ip), vehicle: saline): 105 % of control
T/C [1]: 117 % of control
T/C (dose: 25.0 mg/kg/injection, schedule: Q04DX003 (ip), vehicle: suspension in saline): 111 % of control
T/C (dose: 50.0 mg/kg/injection, schedule: Q01DX001 (ip), vehicle: saline): 98 % of control
T/C [2]: 120 % of control
T/C (dose: 50.0 mg/kg/injection, schedule: Q04DX003 (ip), vehicle: suspension in saline): 116 % of control
T/C [3]: 105 % of control
T/C (dose: 100.0 mg/kg/injection, schedule: Q01DX001 (ip), vehicle: suspension in saline): 114 % of control
T/C [4]: 105 % of control and 104 % of control
T/C [5]: 120 % of control and 123 % of control
T/C (dose: 200.0 mg/kg/injection, schedule: Q04DX003 (ip), vehicle: suspension in saline): 190 % of control and 203 % of control
T/C (dose: 400.0 mg/kg/injection, schedule: Q01DX001 (ip), vehicle: suspension in saline): 173 % of control and 206 % of control
T/C (dose: 400.0 mg/kg/injection, schedule: Q04DX003 (ip), vehicle: suspension in saline): 90 % of control
T/C (dose: 600.0 mg/kg/injection, schedule: Q04DX003 (ip), vehicle: saline): 119 % of control
T/C (dose: 800.0 mg/kg/injection, schedule: Q04DX002 (ip), vehicle: saline): 102 % of control and 108 % of control

CN(C(=O)c1cc([N+](=O)[O-])ccc1O)c1ccccc1
T/C [3]: 98 % of control
T/C [6]: 95 % of control
T/C [7]: 101 % of control

CCCCN(CCCC)S(=O)(=O)CCC
T/C (dose: 50.0 mg/kg/injection, schedule: Q04DX002 (ip), vehicle: saline with Tween-80): 101 % of control
T/C [8]: 97 % of control
T/C [9]: 97 % of control

Cc1cccc(Cl)c1NC(=O)Oc1ccc2c(C)cc(=O)oc2c1
T/C (dose: 100.0 mg/kg/injection, schedule: Q01DX009 (ip), vehicle: Klucel (hydroxypropylcellulose) (HPC)): 102 % of control
T/C (dose: 200.0 mg/kg/injection, schedule: Q01DX009 (ip), vehicle: Klucel (hydroxypropylcellulose) (HPC)): 100 % of control
T/C (dose: 400.0 mg/kg/injection, schedule: Q01DX009 (ip), vehicle: Klucel (hydroxypropylcellulose) (HPC)): 87 % of control

CC(Br)CNC(=O)c1cc([N+](=O)[O-])cc([N+](=O)[O-])c1 (stereo unspecified)
T/C (dose: 75.0 mg/kg/injection, schedule: Q04DX003 (ip), vehicle: Klucel (hydroxypropylcellulose) (HPC)): 96 % of control
T/C (dose: 150.0 mg/kg/injection, schedule: Q04DX003 (ip), vehicle: Klucel (hydroxypropylcellulose) (HPC)): 92 % of control
T/C (dose: 300.0 mg/kg/injection, schedule: Q04DX003 (ip), vehicle: Klucel (hydroxypropylcellulose) (HPC)): 94 % of control

O=C1c2cc(Br)cc(Br)c2NCCC1(Br)Br
T/C [10]: 91 % of control
T/C [11]: 91 % of control
T/C [12]: 94 % of control

O=C(N/N=C/c1ccco1)c1ccccc1O
T/C (dose: 50.0 mg/kg/injection, schedule: Q01DX009 (ip), vehicle: saline with Tween-80): 108 % of control
T/C (dose: 100.0 mg/kg/injection, schedule: Q01DX009 (ip), vehicle: saline with Tween-80): 102 % of control
T/C (dose: 200.0 mg/kg/injection, schedule: Q01DX009 (ip), vehicle: saline with Tween-80): 97 % of control

CC1(Cl)C(=O)NC(=O)C1Cl (stereo unspecified)
T/C (dose: 3.12 mg/kg/injection, schedule: Q01DX009 (ip), vehicle: saline): 92 % of control
T/C (dose: 6.25 mg/kg/injection, schedule: Q01DX009 (ip), vehicle: saline): 87 % of control
T/C [1]: 87 % of control
T/C (dose: 25.0 mg/kg/injection, schedule: Q04DX003 (ip), vehicle: saline): 103 % of control
T/C [2]: 92 % of control
T/C (dose: 50.0 mg/kg/injection, schedule: Q04DX003 (ip), vehicle: saline): 97 % of control
T/C [4]: 110 % of control

O=C(O)C1CC(c2ccccc2)OC1=O (stereo unspecified)
T/C (dose: 100.0 mg/kg/injection, schedule: Q01DX009 (ip), vehicle: gum acacia): 101 % of control
T/C (dose: 100.0 mg/kg/injection, schedule: Q04DX003 (ip), vehicle: gum acacia): 98 % of control
T/C (dose: 200.0 mg/kg/injection, schedule: Q01DX009 (ip), vehicle: gum acacia): 89 % of control
T/C (dose: 200.0 mg/kg/injection, schedule: Q04DX003 (ip), vehicle: gum acacia): 93 % of control
T/C (dose: 400.0 mg/kg/injection, schedule: Q01DX009 (ip), vehicle: gum acacia): 106 % of control
T/C (dose: 400.0 mg/kg/injection, schedule: Q04DX003 (ip), vehicle: gum acacia): 91 % of control

O=[N+]([O-])c1cc(Cl)cc(Br)c1O
T/C (dose: 12.5 mg/kg/injection, schedule: Q04DX003 (ip), vehicle: Klucel (hydroxypropylcellulose) (HPC)): 100 % of control
T/C (dose: 25.0 mg/kg/injection, schedule: Q04DX003 (ip), vehicle: Klucel (hydroxypropylcellulose) (HPC)): 102 % of control
T/C (dose: 50.0 mg/kg/injection, schedule: Q04DX003 (ip), vehicle: Klucel (hydroxypropylcellulose) (HPC)): 105 % of control
T/C (dose: 100.0 mg/kg/injection, schedule: Q04DX003 (ip), vehicle: Klucel (hydroxypropylcellulose) (HPC)): 103 % of control

CN=C(NC)c1ccc(NC(=O)Nc2ccc(NC(=O)Nc3ccc(C(=NC)NC)cc3)cc2)cc1
T/C (dose: 3.94 mg/kg/injection, schedule: Q01DX Z (ip), vehicle: saline): 108 % of control
T/C (dose: 4.0 mg/kg/injection, schedule: Q01DX Z (ip), vehicle: carboxymethylcellulose (CMC)): 107 % of control
T/C (dose: 5.9 mg/kg/injection, schedule: Q01DX Z (ip), vehicle: saline): 114 % of control
T/C (dose: 8.0 mg/kg/injection, schedule: Q01DX Z (ip), vehicle: carboxymethylcellulose (CMC)): 121 % of control
T/C (dose: 8.86 mg/kg/injection, schedule: Q01DX Z (ip), vehicle: saline): 120 % of control
T/C [13]: 101 % of control
T/C (dose: 45.0 mg/kg/injection, schedule: Q01DX Z (ip), vehicle: saline): 115 % of control

Cc1nc(N)c2c(n1)C(C)N(C(=O)c1ccccc1)C2 (stereo unspecified)
T/C [10]: 103 % of control
T/C [11]: 100 % of control
T/C [12]: 97 % of control

Cc1cccc2c1C(=S)NC2=O
T/C [8]: 103 % of control
T/C [9]: 100 % of control
T/C (dose: 400.0 mg/kg/injection, schedule: Q04DX002 (ip), vehicle: saline with Tween-80): 89 % of control

NC(N)=NCCCC(N)C(=O)O (stereo unspecified)
T/C (dose: 25.0 mg/kg/injection, schedule: Q04DX002 (ip), vehicle: saline): 97 % of control
T/C (dose: 50.0 mg/kg/injection, schedule: Q04DX002 (ip), vehicle: saline): 113 % of control
T/C [3]: 97 % of control
T/C (dose: 100.0 mg/kg/injection, schedule: Q01DX009 (ip), vehicle: saline): 119 % of control
T/C (dose: 100.0 mg/kg/injection, schedule: Q04DX002 (ip), vehicle: saline): 103 % of control and 97 % of control
T/C [4]: 102 % of control and 94 % of control
T/C [6]: 100 % of control
T/C (dose: 200.0 mg/kg/injection, schedule: Q01DX009 (ip), vehicle: saline): 95 % of control
T/C (dose: 200.0 mg/kg/injection, schedule: Q04DX002 (ip), vehicle: saline): 94 % of control
T/C [5]: 105 % of control and 90 % of control
T/C [7]: 103 % of control
T/C (dose: 400.0 mg/kg/injection, schedule: Q01DX009 (ip), vehicle: saline): 97 % of control
T/C (dose: 400.0 mg/kg/injection, schedule: Q04DX002 (ip), vehicle: saline): 94 % of control
T/C (dose: 400.0 mg/kg/injection, schedule: Q04DX003 (ip), vehicle: saline): 109 % of control and 97 % of control

CCCCCCC/C=N\N=C(N)N
T/C (dose: 15.0 mg/kg/injection, schedule: Q01DX Z (ip), vehicle: carboxymethylcellulose (CMC)): 97 % of control
T/C [13]: 97 % of control
T/C (dose: 60.0 mg/kg/injection, schedule: Q01DX Z (ip), vehicle: carboxymethylcellulose (CMC)): 101 % of control
